Measurements as given in US20250339409A1, “USES OF PAN BET INHIBITORS” (VYNE THERAPEUTICS INC., priority 2021, published 2025).
Values joined by “and” are separate entries in the source; they are usually repeats but may differ in a detail not shown here. Equal entries are not always repeated. Marks after values point to notes of the source that are not given here.

System: anti collagen antibodies induced arthritis (ACAIA)
Experiment: Anti collagen antibodies induced arthritis (ACAIA) in mice, intra-articular treatment: paw thickness, arthritis clinical score, body weight;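 note: mouse arthritis induced by IV anti-collagen mAb on day 0 plus IP LPS on day 4, with body weight, caliper paw thickness and 0-4 paw score tracked against a day 0 baseline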
Conditions: for Average clinical score per day (untreated): untreated leg
[1] = Dexamethasone 1 mg/kg IA (Group 7), Av
[2] = Dexamethasone 1 mg/kg IA (Group 7), individual animals
[3] = Dexamethasone 1 mg/kg IP (Group 6), Av
[4] = Dexamethasone 1 mg/kg IP (Group 6), individual animals

For `C[C@@H]1C[C@H]2[C@@H]3CCC4=CC(=O)C=C[C@]4(C)[C@@]3(F)[C@@H](O)C[C@]2(C)[C@@]1(O)C(=O)CO` [dexamethasone, Dexamethasone, reference compound], the “Paw thickness of treated leg (Avg.)” value (1 mg/kg IP (Group 6), Day 6) was 2.25** mm, the “Percent change of weight per day (Av)” value (1 mg/kg IP (Group 6), Day 6) was 87.71% and the “Percent change of weight per day (individual animal)” value (1 mg/kg IP (Group 6), Day 6) was 88.44% and 86.7% and 89.66% and 86.18% and 86.85% and 89.74% and 86.41%. The “Δ clinical score untreated -treated, Avg. Delta” value (1 mg/kg IP (Group 6), Day 6) was 0.00 points, the “Clinical score of treated leg (Avg.)” value (1 mg/kg IP (Group 6), Day 7) was 0.00** points and the “Paw thickness Avg. Delta untreated -treated” value (1 mg/kg IP (Group 6), Day 7) was 0.03 mm. The “Paw thickness of treated leg (Avg.)” value (1 mg/kg IP (Group 6), Day 7) was 2.16**** mm, the “Percent change of weight per day (Av)” value (1 mg/kg IP (Group 6), Day 7) was 88.39% and the “Percent change of weight per day (individual animal)” value (1 mg/kg IP (Group 6), Day 7) was 89.45% and 85.22% and 88.67% and 87.5576% and 88.73% and 90.26% and 88.83%. The “Δ clinical score untreated -treated, Avg. Delta” value (1 mg/kg IP (Group 6), Day 7) was 0.00 points, the “Clinical score of treated leg (Avg.)” value (1 mg/kg IP (Group 6), Day 8) was 0.00** points and the “Paw thickness Avg. Delta untreated -treated” value (1 mg/kg IP (Group 6), Day 8) was 0.10 mm. The “Percent change of weight per day (Av)” value (1 mg/kg IP (Group 6), Day 8) was 88.85%, the “Percent change of weight per day (individual animal)” value (1 mg/kg IP (Group 6), Day 8) was 89.95% and 85.22% and 87.68% and 91.24% and 88.73% and 91.28% and 87.86% and the “Δ clinical score untreated -treated, Avg. Delta” value (1 mg/kg IP (Group 6), Day 8) was 0.00 points. For the same compound, the “Clinical score of treated leg (Avg.)” value (1 mg/kg IP (Group 6), Day 10) was 0.14* points, the “Paw thickness Avg. Delta untreated -treated” value (1 mg/kg IP (Group 6), Day 10) was −0.04 mm and the “Paw thickness of treated leg (Avg.)” value (1 mg/kg IP (Group 6), Day 10) was 2.09** mm. For the same compound, the “Percent change of weight per day (Av)” value (1 mg/kg IP (Group 6), Day 10) was 88.77%, the “Percent change of weight per day (individual animal)” value (1 mg/kg IP (Group 6), Day 10) was 89.45% and 86.7% and 88.18% and 91.24% and 88.26% and 89.23% and 88.35% and the “Δ clinical score untreated -treated, Avg. Delta” value (1 mg/kg IP (Group 6), Day 10) was −0.14 points. For the same compound, the “Clinical score of treated leg (Avg.)” value (1 mg/kg IP (Group 6), Day 12) was 0.00* points, the “Paw thickness Avg. Delta untreated -treated” value (1 mg/kg IP (Group 6), Day 12) was −0.02 mm and the “Percent change of weight per day (Av)” value (1 mg/kg IP (Group 6), Day 12) was 90.11%. For the same compound, the “Percent change of weight per day (individual animal)” value (1 mg/kg IP (Group 6), Day 12) was 91.9598% and 88.18% and 91.133* percent and 90.78% and 90.14% and 89.23% and 89.32%, the “Δ clinical score untreated -treated, Avg. Delta” value (1 mg/kg IP (Group 6), Day 12) was 0.00 points and the Weight per day, Baseline [1] was 19.8 g. It also gave a Weight per day, Day 3 [1] of 19.5 g, a Weight per day, Day 4 [1] of 18.8 g and a Weight per day, Day 5 [1] of 18.1 g. The Weight per day, Day 6 [1] was 17.5 g, the Weight per day, Day 7 [1] was 17.4 g and the Weight per day, Day 8 [1] was 17.7 g. The Weight per day, Day 10 [1] was 18.3 g, the Weight per day, Baseline [2] was 19.1 g and 20.3 g and 18.6 g and 19.2 g and 20.2 g (2×) and 20.9 g and the Weight per day, Day 3 [2] was 19.1 g (2×) and 19.8 g and 17.8 g and 19.9 g and 19.7 g and 20.6 g. The Weight per day, Day 4 [2] was 18.7 g and 19.6 g and 17.3 g and 17.9 g and 19.2 g and 19.1 g and 20.1 g, the Weight per day, Day 5 [2] was 17.3 g and 18.5 g and 16.5 g and 19.2 g and 18.2 g and 17.7 g and 19 g and the Weight per day, Day 6 [2] was 16.6 g and 17.8 g and 16 g and 19.6 g and 17.7 g and 17.1 g and 17.9 g. The Weight per day, Day 7 [2] was 17 g and 16.9 g and 16 g and 20 g and 17.4 g and 15.8 g and 18.7 g, the Weight per day, Day 8 [2] was 17.2 g and 16.9 g and 16.3 g and 20.1 g and 18 g and 16.4 g and 18.9 g and the Weight per day, Day 10 [2] was 17.4 g and 18.8 g and 16.3 g and 20 g and 18.2 g (2×) and 19.4 g. It also gave a Weight per day, Baseline [3] of 20.5 g, a Weight per day, Day 3 [3] of 19.6 g and a Weight per day, Day 4 [3] of 19.8 g. For the same compound, the Weight per day, Day 5 [3] was 18.1 g, the Weight per day, Day 6 [3] was 18 g and the Weight per day, Day 7 [3] was 18.1 g. For the same compound, the Weight per day, Day 8 [3] was 18.2 g, the Weight per day, Day 10 [3] was 18.2 g and the Weight per day, Baseline [4] was 19.9 g and 20.3 g (2×) and 21.7 g and 21.3 g and 19.5 g and 20.6 g. The Weight per day, Day 3 [4] was 18.9 g and 19.1 g and 19.3 g and 20.9 g and 20.5 g and 18.8 g and 19.8 g, the Weight per day, Day 4 [4] was 19.2 g and 19.4 g and 19.7 g and 20.9 g and 20.6 g and 19 g and 19.9 g and the Weight per day, Day 5 [4] was 17.6 g and 17.5 g (2×) and 18.6 g and 18.7 g and 18.5 g and 18.4 g. For the same compound, the Weight per day, Day 6 [4] was 17.6 g (2×) and 18.2 g and 18.7 g and 18.5 g and 17.5 g and 17.8 g, the Weight per day, Day 7 [4] was 17.8 g and 17.3 g and 18 g and 19 g and 18.9 g and 17.6 g and 18.3 g and the Weight per day, Day 8 [4] was 17.9 g and 17.3 g and 17.8 g (2×) and 19.8 g and 18.9 g and 18.1 g. The Weight per day, Day 10 [4] was 17.8 g and 17.6 g and 17.9 g and 19.8 g and 18.8 g and 17.4 g and 18.2 g, the “average arthritis score, treated limbs” value (intra-articular 1 mg/kg, day 12, scale 0-4) was 1.3 and the “Average clinical score per day (untreated)” value (1 mg/kg IA (Group 7), Baseline) was 0.00 points. For the same compound, the “Average clinical score per day (untreated)” value (1 mg/kg IA (Group 7), Day 3) was 0.00 points, the “Average clinical score per day (untreated)” value (1 mg/kg IA (Group 7), Day 4) was 0.00 points and the “Average clinical score per day (untreated)” value (1 mg/kg IA (Group 7), Day 5) was 0.00 points. The “Average clinical score per day (untreated)” value (1 mg/kg IA (Group 7), Day 6) was 0.57 points, the “Average clinical score per day (untreated)” value (1 mg/kg IA (Group 7), Day 7) was 0.86 points and the “Average clinical score per day (untreated)” value (1 mg/kg IA (Group 7), Day 8) was 1.71 points. The “Average clinical score per day (untreated)” value (1 mg/kg IA (Group 7), Day 10) was 1.57 points, the “Average clinical score per day (untreated)” value (1 mg/kg IA (Group 7), Day 12) was 1.71 points and the “Average clinical score per day (untreated)” value (1 mg/kg IP (Group 6), Baseline) was 0.00 points. The “Average clinical score per day (untreated)” value (1 mg/kg IP (Group 6), Day 3) was 0.00 points, the “Average clinical score per day (untreated)” value (1 mg/kg IP (Group 6), Day 4) was 0.00 points and the “Average clinical score per day (untreated)” value (1 mg/kg IP (Group 6), Day 5) was 0.00 points. The “Average clinical score per day (untreated)” value (1 mg/kg IP (Group 6), Day 6) was 0.00 points, the “Average clinical score per day (untreated)” value (1 mg/kg IP (Group 6), Day 7) was 0.00 points and the “Average clinical score per day (untreated)” value (1 mg/kg IP (Group 6), Day 8) was 0.00 points. The “Average clinical score per day (untreated)” value (1 mg/kg IP (Group 6), Day 10) was 0.00 points and the “Average clinical score per day (untreated)” value (1 mg/kg IP (Group 6), Day 12) was 0.00 points.
